From patent US6348587B1, “2′-Fluoronucleosides” (Emory University, priority 1998, dated 2002)
Counter-ions that a name gives are not always drawn.

Assays:
CEM cells = assay: Cytotoxicity in CEM cells; type: cell-based, human
Procedure: (§1) Antiviral and cytotoxicity assays: Anti-HIV-1 activity of the compounds is determined in human peripheral blood mononuclear (PBM) cells as described previously (Schinazi, R. F.; McMillan, A.; Cannon, D.; Mathis, R.; Lloyd, R. M. Jr.; Peck, A.; Sommadossi, J.-P.; St. Clair, M.; Wilson, J.; Furman, P. A.; Painter, G.; Choi, W.-B.; Liotta, D. C. Antimicrob. Agents Chemother. 1992, 36, 2423; Schinazi, R. F.; Sommadossi, J.-P.; Saalmann, V.; Cannon, D.; Xie, M.-Y.; Hart, G.; Smith, G.; Hahn, E. Antimicrob. Agents Chemother. 1990, 34, 1061). Stock solutions (20-40 mM) of the compounds were prepared in sterile DMSO and then diluted to the desired concentration in complete medium. […] Cells are infected with the prototype HIV-1LAI at a multiplicity of infection of 0.01. Virus obtained from the cell supernatant are quantitated on day 6 after infection by a reverse transcriptase assay using poly(rA)n.oligo(dT)12-18 as template-primer. The DMSO present in the diluted solution (<0.1%) should have no effect on the virus yield. The toxicity of the compounds can be assessed in human PBM, CEM, and Vero cells. The antiviral EC50 and cytotoxicity IC50 is obtained from the concentration-response curve using the median effective method described by Chou and Talalay (Adv. Enzyme Regul. 1984, 22, 27).
The extent of anticancer activity can be easily assessed by assaying the compound according to the procedure below in a CEM cell or other tumor cell line assay. CEM cells are human lymphoma cells (a T-lymphoblastoid cell line that can be obtained from ATCC, Rockville, Md.). […] The toxicity is measured as IC50 micromolar). […] Drug solutions, including cycloheximide as a positive control, are plated in triplicate in 50 μl growth medium at 2 times the final concentration and allowed to equilibrate at 37° C. in a 5% CO2 incubator. Log phase cells are added in 50 μl growth medium to a final concentration of 2.5×10^3 (CEM and SK-MEL-28), 5×10^3 (MMAN, MDA-MB-435s, SKMES-1, DU-145, LNCap), or 1×10^4 (PC-3, MCF-7) cells/well and incubated for 3 (DU-145, PC-3, MMAN), 4 (MCF-7, SK-MEL-28, CEM), or 5 (SK-MES-1, MDA-MB-435s, LNCaP) days at 37° C. under a 5% CO2 air atmosphere. Control wells include media alone (blank) and cells plus media without drug. After growth period, 15 μl of Cell Titer 96 kit assay dye solution (Promega, Madison, Wis.) are added to each well and the plates are incubated 8 hr at 37° C. in a 5% CO2 incubator. Promega Cell Titer 96 kit assay stop solution is added to each well and incubated 4-8 hr in the incubator. Absorbance is read at 570 nm, blanking on the medium-only wells using a Biotek Biokinetics plate reader (Biotek, Winooski, Vt.). Average percent inhibition of growth compared to the untreated control is calculated. IC50, IC90, slope and r value are calculated by the method of Chou and Talalay. Chou T-C, Talalay P. Quantitative analysis of dose-effect relationships: The combined effects of multiple drugs or enzyme inhibitors. Adv Enzyme Regul 1984, 22:27-55.

Vero cells = assay: Cytotoxicity in Vero cells; type: cell-based
Procedure: as §1, with “[…].;” for “R. F.; McMillan, A.;”, “[…].;” for “A.; Sommadossi, J.-P.;”, “[…].” for “W.-B.; Liotta, D. C.”, “[…].;” for “R. F.; Sommadossi, J.-P.; Saalmann, V.;”, “[…].;” for “M.-Y.; Hart, G.;”

PBM cells = assay: Cytotoxicity in uninfected human PBM cells; type: cell-based
Procedure: (§2) Antiviral and cytotoxicity assays: Anti-HIV-1 activity of the compounds is determined in human peripheral blood mononuclear (PBM) cells as described previously (Schinazi, […].; Cannon, D.; Mathis, R.; Lloyd, R. M. Jr.; Peck, […].; St. Clair, M.; Wilson, J.; Furman, P. A.; Painter, G.; Choi, […]. Antimicrob. Agents Chemother. 1992, 36, 2423; Schinazi, […].; Cannon, D.; Xie, […].; Smith, G.; Hahn, E. Antimicrob. Agents Chemother. 1990, 34, 1061). Stock solutions (20-40 mM) of the compounds were prepared in sterile DMSO and then diluted to the desired concentration in complete medium. […] Cells are infected with the prototype HIV-1LAI at a multiplicity of infection of 0.01. Virus obtained from the cell supernatant are quantitated on day 6 after infection by a reverse transcriptase assay using poly(rA)n.oligo(dT)12-18 as template-primer. […] The toxicity of the compounds can be assessed in human PBM, CEM, and Vero cells. The antiviral EC50 and cytotoxicity IC50 is obtained from the concentration-response curve using the median effective method described by Chou and Talalay (Adv. Enzyme Regul. 1984, 22, 27). Mitogen stimulated uninfected human PBM cells (3.8×10^5 cells/ml) can be cultured in the presence and absence of drug under similar conditions as those used for the antiviral assay described above. The cells are counted after 6 days using a hemacytometer and the trypan blue exclusion method, as described by Schinazi et al., Antimicrobial Agents and Chemotherapy, 22(3), 499 (1982).

HIV-1 (strain LAV) = assay: Anti-HIV-1 activity in PHA-stimulated human PBM cells (virus quantitated by reverse transcriptase assay, day 6); type: cell-based; conditions: HIV-1 in human PBM cells
Procedure: The ability of nucleosides to inhibit HIV can be measured by various experimental techniques. One technique, described in detail below, measures the inhibition of viral replication in phytohemagglutinin (PHA) stimulated human peripheral blood mononuclear (PBM) cells infected with HIV-1 (strain LAV). The amount of virus produced is determined by measuring the virus-coded reverse transcriptase enzyme. The amount of enzyme produced is proportional to the amount of virus produced.
as §1
Three-day-old phytohemagglutinin-stimulated PBM cells 10^6 cells/ml) from hepatitis B and HIV-1 seronegative healthy donors are infected with HIV-1 (strain LAV) at a concentration of about 100 times the 50% tissue culture infectious dose (TICD 50) per ml and cultured in the presence and absence of various concentrations of antiviral compounds.
Approximately one hour after infection, the medium, with the compound to be tested (2 times the final concentration in medium) or without compound, is added to the flasks (5 ml; final volume 10 ml).
The cells are exposed to the virus (about 2×10^5 dpm/ml, as determined by reverse transcriptase assay) and then placed in a CO2 incubator. HIV-1 (strain LAV) is obtained from the Center for Disease Control, Atlanta, Ga. The methods used for culturing the PBM cells, harvesting the virus and determining the reverse transcriptase activity are those described by McDougal et al. (J. Immun. Meth. 76, 171-183, 1985) and Spiral et al. (J. Clin. Meth. 25, 97-99, 1987), except that flngizone was not included in the medium (see Schinazi, et al., Antimicrob. Agents Chemother. 32, 1784-1787 (1988); Id., 34:1061-1067 (1990)).
On day 6, the cells and supernatant are transferred to a 15 ml tube and centrifuged at about 900 g for 10 minutes. Five ml of supernatant are removed and the virus concentrated by centrifugation at 40,000 rpm for 30 minutes (Beckman 70.1 Ti rotor). The solubilized virus pellet is processed for determination of the levels of reverse transcriptase. Results are expressed in dpm/ml of sampled supernatant. Virus from smaller volumes of supernatant (1 ml) can also be concentrated by centrifugation prior to solubilization and determination of reverse transcriptase levels.

[1] = Cytotoxicity in Vero cells; type: cell-based; conditions: African green monkey, Vero cells
Procedure: as §1, with “[…].;” for “R. F.; McMillan, A.;”, “[…].;” for “A.; Sommadossi, J.-P.;”, “[…].” for “W.-B.; Liotta, D. C.”, “[…].;” for “R. F.; Sommadossi, J.-P.; Saalmann, V.;”, “[…].;” for “M.-Y.; Hart, G.;”

[2] = Cytotoxicity in uninfected human PBM cells; type: cell-based; conditions: human, mitogen-stimulated uninfected human PBM cells; PMC Cells
Procedure: as §2

[3] = target: HIV-1 heterodimer p66/51 reverse transcriptase (Human immunodeficiency virus type 1 group M subtype B, UniProt P04585); assay: HIV-1 reverse transcriptase extension assay, r(I)n.(dC)12-18 template-primer
Procedure: Extension assays were performed using a r(I)n.(dC)12-18 homopolymer template-primer (Pharmacia, Piscataway, N.J.) and the HIV-1 heterodimer p66/51 reverse transcriptase (RT, Biotechnology General, Rehovat, Israel). The standard reaction mixture (100 μl) contained 100 mM Tris hydrochloride (pH 8.0), 50 mM KCl, 2 mM MgCl2, 0.05 units/ml r(I)n.(dC)12-18, 5 mM DTT, 100 μg/ml Bovine Serum Albumin, and 1 μM ^3H-dCTP (23 Ci/mmol). 3TCTP (0.001-50 μM) was the positive control. Compounds were incubated 1 hr at 37° C. in the reaction mixture with 1 unit HIV-1 RT. The reaction was stopped with the addition of an equal volume of cold 10% TCA/0.05% sodium pyrophosphate and incubated 30 minutes at 4° C. The precipitated nucleic acids were harvested onto fiberglass filter paper using a Packard manual harvester (Meriden, Conn.). The radiolabel uptake in counts per minute (cpm) was determined using a Packard 9600 Direct Beta counter.

[4] = Human immunodeficiency virus 1, PBMC

SMILES	IC50 (CEM cells) [µM]	IC50 (Vero cells) [µM]	IC50 (PBM cells) [µM]	EC50 (HIV-1 (strain LAV)) [µM]	EC90 (HIV-1 (strain LAV)) [µM]	IC50 [1] [µM]	IC50 at 6 days [2] [µM]	EC50 (HIV-1 (strain LAV); [4]) [µM]	EC90 (HIV-1 (strain LAV); [4]) [µM]	EC50 [3] [µM]
Nc1ccn([C@H]2O[C@@H](CO)C=C2F)c(=O)n1 [Compound 322, 1-(2,3-dideoxy-2-fluoro-β-L-gycero-pent-2-enofuranosyl)cytosine]	> 100	> 100	> 100	0.51	4.3					
O=c1ccn([C@H]2O[C@@H](CO)C=C2F)c(=O)[nH]1 [Compound 316, 1-(2,3-Dideoxy-2-fluoro-(α,β)-L-gycero-pent-2-eno-furanosyl)uracil]	> 100	> 100	> 100	> 100	> 100					
Cc1cn([C@H]2C[C@H](N=[N+]=[N-])[C@@H](CO)O2)c(=O)[nH]c1=O [AZT, 3′-azido-3′-deoxythymidine, reference compound]						29	> 100	0.004	0.04	
O=c1[nH]cnc2c1ncn2[C@@H]1O[C@@H](CO)C=C1F [Compound 338, 9-(2,3-dideoxy-2-fluoro-α-L-gycero-pent-2-enofuranosyl)hypoxanthine]	> 100		> 100	> 100	> 100					
Nc1ncnc2c1ncn2[C@H]1O[C@@H](CO)C=C1F [Compound 335, 9-(2,3-dideoxy-2-fluoro-β-L-gycero-pent-2-enofuranosyl)adenine]	> 100	> 100	> 100	1.5	15.1					
Nc1ncnc2c1ncn2[C@@H]1O[C@@H](CO)C=C1F [Compound 336, 9-(2,3-dideoxy-2-fluoro-α-L-gycero-pent-2-enofuranosyl)adenine]	> 100	> 100	> 100	47.6	332					
Nc1nc(=O)n(C2C=CC(COP(=O)(O)OP(=O)(O)OP(=O)(O)O)C2)cc1F (mixture of isomers) [(±)-carbocyclic-D4FC-TP, cis-(±)-Carbocyclic 2′,3′-didehydro-2′,3′-dideoxy-5-fluorocytidine 5′-triphosphate, triethylhydrogenammonium salt]										0.4
O=c1[nH]cnc2c1ncn2[C@H]1O[C@@H](CO)C=C1F [Compound 337, 9-(2,3-dideoxy-2-fluoro-β-L-gycero-pent-2-enofuranosyl)hypoxanthine]	> 100	> 100	> 100	> 100	> 100					
Nc1ccn([C@@H]2O[C@@H](CO)C=C2F)c(=O)n1 [Compound 323, 1-(2,3-dideoxy-2-fluoro-α-L-gycero-pent-2-enofuranosyl)cytosine]	> 100	> 100	> 100	> 100	> 100					
Cc1cn([C@H]2O[C@@H](CO)C=C2F)c(=O)[nH]c1=O [Compound 318, 1-(2,3-Dideoxy-2-fluoro-(α,β)-L-gycero-pent-2-eno-furanosyl)thymine]	> 100	> 100	> 100	> 100	> 100					
